Data: publication PMC11359702, “Synthesis and Biochemical Evaluation of Ethanoanthracenes and Related Compounds: Antiproliferative and Pro-Apoptotic Effects in Chronic Lymphocytic Leukemia (CLL)” (Pharmaceuticals, 2024)
Values joined by “and” are separate entries in the source; they are usually repeats but may differ in a detail not shown here. Equal values may be shown once. Read-outs that look alike come from different tables or passages of the source.

Experiments:
[1] = test system: chemoresistant DG-75 cell line; set-up: method as in PMID 31963567; details: chemoresistant DG-75 cell line ref 43; cited from earlier work
[2] = test system: chemosensitive MUTU-1 cell line; set-up: method as in PMID 31963567; details: chemosensitive MUTU-1 cell line ref 43; cited from earlier work
[3] = test system: healthy-donor peripheral blood mononuclear cells (PBMCs); test: Annexin V/PI assay in donor PBMCs; type: cell-based; details: 0.34 and 0.68 µM, 48 h
From the text: Whole blood samples from healthy donors (×5) were isolated, prepared and treated following the protocol previously described. The percentage of apoptosis observed in the treatment of isolated donor PBMCs with nitrovinylethanoanthracene 20a is concentration-dependent (Figure 11A). […] For ethanoanthracene 23a, the percentage of total apoptosis observed is illustrated in Figure 11B. […] The percentage of total apoptosis observed in the treatment of isolated donor PBMCs with the anthracene–chalcone 25n (normalized against vehicle 0.5% v/v DMSO) is illustrated in Figure 11C, and the dose-response behavior was also concentration-dependent, with compound 25n moderately toxic to healthy-donor PBMCs when treated at a 5.00 µM concentration (39%).
The human peripheral blood mononuclear cells (PBMCs) were generated as follows: peripheral blood was obtained from healthy donors (n = 2) after informed consent was received. The blood was then placed into a 50-mL falcon tube and diluted with an equal volume of phosphate-buffered saline (PBS). PBMCs were isolated using density-gradient centrifugation with LymphoPrep, as described previously. The cells were resuspended in RPMI media containing 10% FBS and 1% penicillin/streptomycin (P/S). The cells were counted using a haemocytometer and seeded into 96 well plates at a density of 1 × 10^5 cells/well (200 µL), and they were incubated at 37 °C for 1 h prior to compound treatment. The Annexin V/PI assay was used as a preliminary method of assessing the selective toxicity of the above compounds when compared with a previous alamarBlue cell viability assay in CLL cell lines. The assay was carried out as described above for the Annexin V/PI assay previously described above, and it was completed in triplicate on two independent days. Approval for this study was obtained from the School of Pharmacy and Pharmaceutical Sciences Trinity College Dublin Research Ethics Committee (2020-06-01-MS).

PGA-1 cells [4] = test: Annexin V/PI apoptosis assay (FACS); type: cell-based, human
Method: (§1) The pro-apoptotic effects of selected nitrovinylethanoanthracene compounds 20a and 20f and anthracene chalcones 23a and 25n in HG-3 cells and PGA-1 cells was then investigated using FITC (fluorescein isothiocyanate), Annexin V/PI (propidium iodide) and FACS (fluorescence-activated cell sorting) analysis to characterize the mode of cellular death induced. Apoptosis was assessed as % total apoptosis (total of early (Q3) and late (Q2) apoptosis).
(§2) CLL cells PGA-1 and HG-3 (1 × 10^6 cells/mL) were treated at 37 °C with either the vehicle (1% (v/v) DMSO) or the ethanoanthracene compounds 20a, 20f, 23a and 25n (10 µM, 5 µM and 1 µM) for 48 h, following the protocol previously described. The cells were then harvested via centrifugation at 400× g in a temperature-controlled Sorvall centrifuge. The cells were rinsed with Ca^2+ Annexin-V-binding buffer (0.1 M HEPES, pH 7.4; 0.14 M NaCl; 25 mM CaCl2, 0.5 mL). The samples were resuspended in FITC Annexin V (diluted 1:33 in Ca^2+ Annexin V-binding buffer, 50 µL) and incubated for 10 min (on ice and protected from light). The samples were washed with Annexin-V-binding buffer and resuspended in a PI solution (0.5 µg/mL, 500 µL) and analyzed within 1 h using a BD Accuri C6 flow cytometer counting 10,000 cells using the FlowJo software Version 10 (FlowJo LLC, Ashland, OR, USA).

HG-3 cells [5] = test: Annexin V/PI apoptosis assay (FACS); type: cell-based, human
Method: as §1, §2

PGA-1 cells [6] = test: alamarBlue cell viability assay; details: for IC50: read-out: PGA-1 IC50
HG-3 cells [7] = test: alamarBlue viability after pan-caspase inhibitor Z-VAD-FMK pre-treatment; type: cell-based, human
From the text: Caspases (cysteine-aspartic proteases) are a family of aspartic acid residue-specific regulatory cysteine proteases that play an essential role in key cellular homeostatic processes such as inflammation and programmed cell death through the induction of apoptosis. To assess whether the biological activity of both major ethanoanthracene classes (nitrostyrene and chalcone-based) is caspase-dependent, compounds 20a and 23a (representing Series 1 and Series 4, respectively) (Figure 13) were selected for evaluation at treatment concentrations of 10 µM and 1 µM across both CLL cell lines using a caspase assay protocol. In HG-3 cells, pre-treatment with pan-caspase inhibitor (CI) Z-VAD-FMK [85] […] Little difference was found between cell viability responses (with or without the caspase inhibitor) at both 10-µM and 1-µM concentrations for compound 20a.
Compounds 20a and 23a (representing Series 1 and Series 4, respectively) were selected for evaluation at two treatment concentrations, 10 µM and 1 µM, across both HG-3 and PGA-1 CLL cells. […] The output was statistically analyzed using a one-way ANOVA with a Bonferroni multiple-comparison test. […]

[8] = test system: HG-3 and PGA-1 cell lines; test: alamarBlue cell viability assay, mean of both CLL cell lines; type: cell-based, human; details: mean of HG-3 and PGA-1
HG-3 cells [9] = test: alamarBlue cell viability assay; details: HG-3, 24 h; for IC50: read-out: HG-3 IC50
PGA-1 cells [10] = test: LDH cytotoxicity assay (CytoTox 96); type: cell-based; details: PGA-1, 10 µM, 24 h
From the text: (§3) The lactate dehydrogenase (LDH) assay is used to assess the membrane integrity of cells as a function of the cytoplasmic LDH released. The loss of cell membrane integrity (due to cytotoxic insult) is detectable through LDH release into the cell growth medium. The assay is initiated via the reduction in cellular co-factor NAD^+ to NADH catalyzed via the LDH enzyme. Newly formed NADH catalyzes the acidic reduction in iodonitrotetrazolium chloride (INT) to the highly colored formazan (red) (mediated via the diaphorase enzyme). […] At the 10-µM treatment concentration, mild to moderate cytotoxicity (19–47%) was observed. […] Cytotoxicity remained low to mild at 1 µM (4–18%) with 23a displaying the lowest LDH release (4%).
(§4) Following the treatment of the HG-3 and PGA-1 cells at 10 µM for 24 hr, the amount of LDH released was determined using an LDH assay kit from Promega (G1780). Cell lysis solution = 100% cell lysis and LDH release). Data are presented as % cell death at a concentration of 10 µM. Cells were treated with ethanoanthracene compounds 20a, 20f, 23a and 25n (1 µM and 10 µM) for 24 h. Values are shown as the mean of three independent experiments.
(§5) The cytotoxicity of the selected compounds 20a, 20f, 23a and 25n was determined using the CytoTox 96 non-radioactive cytotoxicity assay (Promega Corporation; 2800 Woods Hollow Road, Madison, WI, USA). CLL cells HG-3 and PGA-1 were incubated for 24 h and then treated with the selected compounds 20a, 20f, 23a and 25n at 10-µM and 1-µM concentrations, following the protocol outlined above in the cell viability assay. After 24 h, the lysis solution (10×) (20 µL) was added, and the cells were incubated for a further 1 h to ensure complete cell death. Supernatant (50 µL) was removed from each well and transferred to a clean 96-well plate. “Substrate mix” (50 µL) was added, and the plate was stored in the dark at 20 °C for 30 min. “Stop solution” (50 µL) was added to each well, and the absorbance at 490 nm was recorded using a Dynatech MR5000 plate reader; the % cell death was determined relative to the control cell lysis solution.

HG-3 cells [11] = test: LDH cytotoxicity assay (CytoTox 96); type: cell-based; details: HG-3, 10 µM, 24 h, lysis solution = 100%
From the text: as §3, §4, §5

melanoma cell lines = test: NCI-60 five-dose assay, melanoma cell lines; type: cell-based, human; details: range over melanoma cell lines
Method: A number of our most promising compounds identified through preliminary cell viability testing (23c, 23d, 23f, 23h, 23l, 23m, 23n, 23o, 24f, 24l, 25n and 26n) were selected for NCI drug screening in the 60-cell-line panel. The panel includes nine subcategories based on cancer tissue types, which include leukemia, ovarian, central nervous system, breast, lung, prostate, skin, renal and colon cancer. The compounds were initially assessed in a one-dose assay at a fixed treatment concentration of 10 µM. The compounds selected for further investigation were progressed to a five-dose assay across the concentration ranges of 0.01, 0.1, 1, 10 and 100 µM [72]. The endpoints assessed in the screening protocol were GI50, TGI and LC50 [72].

SR = test: NCI-60 five-dose assay; type: cell-based, human
CCRF-CEM = test: NCI-60 five-dose assay; type: cell-based, human
MOLT-4 = test: NCI-60 five-dose assay; type: cell-based, human; details: MOLT-4
[12] = test system: NCI 60 cancer cell line panel; test: NCI-60 five-dose assay, full-panel means; type: cell-based
Summary of the method: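 NCI 60-cell-line screen: one-dose test at 10 µM, then selected compounds run in five-dose format at 0.01, 0.1, 1, 10 and 100 µM. Endpoints derived were GI50, TGI and LC50.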

HL-60(TB) = test: NCI-60 five-dose assay; type: cell-based, human; details: HL-60(TB)
HG-3 cells [13] = details: 10 µM
[14] = HPLC stability study in phosphate buffers; type: physicochemical
Summary of the method: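 Compound stock (5 mg in 10 mL 80:20 acetonitrile–water) added to phosphate buffers at pH 4, 7.4 and 9 and held at 37 °C. Sampled over 24 h (0 min to 24 h) and analysed by C18 HPLC with UV detection at 254 nm; single experiments.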

RPMI-8226 = test: NCI-60 five-dose assay; type: cell-based, human; details: RPMI-8226
K-562 = test: NCI-60 five-dose assay; type: cell-based, human; details: K-562
leukemia cell panel = test: NCI-60 five-dose assay, leukemia cell panel mean; type: cell-based, human; details: mean across the six leukemia cell lines
CLL patients = test system: CLL patients; set-up: method as in PMID 23291630, PMID 31160589; details: CLL patients ref 28,29; cited from earlier work
[15] = test system: cancer cells isolated from CLL patients; details: cancer cells isolated from CLL patients ref 39; cited from earlier work

O=C1C2C3c4ccccc4C(C=C[N+](=O)[O-])(c4ccccc43)C2C(=O)N1c1ccccc1 (stereo not shown) [Compound 20a]
IC50 [1]: 0.71 µM | IC50 [2]: 0.21 µM | total apoptosis (toxicity) in healthy-donor PBMCs [3]: 10–35% | total apoptosis (early Q3 + late Q2) (PGA-1 cells [4]; PGA-1, 1 µM): 83% | total apoptosis (early Q3 + late Q2) (PGA-1 cells [4]; PGA-1, 10 µM): 87–97% and 97% | total apoptosis (early Q3 + late Q2) (HG-3 cells [5]; HG-3, 1 µM): 82% | total apoptosis (early Q3 + late Q2) (HG-3 cells [5]; HG-3, 10 µM): 82–95% and 95% | IC50 (PGA-1 cells [6]; Homo sapiens, 24 h): 0.61 µM | viability at 10 µM (PGA-1 cells [6]; Homo sapiens, 24 h, read-out: cell viability): 11% | decrease in cell viability after Z-VAD-FMK pre-treatment (HG-3 cells [7]; HG-3, 1 µM compound): 2% | decrease in cell viability after Z-VAD-FMK pre-treatment (HG-3 cells [7]; HG-3, 10 µM compound): 10% | IC50 ([8]; Homo sapiens, CLL cell): 0.55 µM | IC50 (HG-3 cells [9]; Homo sapiens): 0.48 µM | viability at 10 µM (HG-3 cells [9]; Homo sapiens, read-out: cell viability, HG-3, 10 µM, 24 h, vehicle = 100%): 14 to 43% | LDH release (cytotoxicity, % cell death) (PGA-1 cells [10]): 9% | LDH release (cytotoxicity, % cell death) (HG-3 cells [11]): 33%

O=C(/C=C/C12c3ccccc3C(c3ccccc31)C1C(=O)NC(=O)C12)c1ccccn1 (stereo not shown) [Compound 23n]
GI50 (melanoma cell lines): 1.12 to 2.14 µM | GI50 (SR): 0.78 µM | GI50 (CCRF-CEM): 1.44 µM | IC50 (PGA-1 cells [6]; PGA-1, 24 h): 1.48 µM | GI50 (MOLT-4): 2.11 µM | CC50 [12]: 14.8 µM | Mean TGI (MID TGI, total growth inhibition) ([12]; mean over NCI 60 cell line panel): 4.570 µM | GI50 ([12]; mean over NCI 60 cell line panel, read-out: Mean GI50 (MID GI50, full-panel mean-graph mid-point)): 1.66 µM | GI50 (HL-60(TB)): 1.02 µM | cell viability (HG-3 cells [13]): 2% | Half-life pH 4 ([14]; pH 4 buffer, 37 °C): 19 h | % remaining 24 h pH 4 ([14]; pH 4 buffer, 37 °C, 24 h, HPLC): 39% and 38.86% | Half-life pH 7.4 ([14]; pH 7.4 buffer, 37 °C): > 24 h | % remaining 24 h pH 7.4 ([14]; pH 7.4 buffer, 37 °C, 24 h, HPLC): 70% and 70.29% | decrease in compound concentration over 24 h ([14]; pH 9.0): 11% | Half-life pH 9 ([14]; pH 9 buffer, 37 °C): > 24 h | % remaining 24 h pH 9 ([14]; pH 9 buffer, 37 °C, 24 h, HPLC): 89% and 88.59% | IC50 [8]: 1.94 µM | GI50 (RPMI-8226): 1.22 µM | GI50 (K-562): 1.37 µM | IC50 (HG-3 cells [9]): 2.39 µM | GI50 (leukemia cell panel): 1.32 µM

CC1(C)CCC(CN2CCN(c3ccc(C(=O)NS(=O)(=O)c4ccc(NCC5CCOCC5)c([N+](=O)[O-])c4)c(Oc4cnc5[nH]ccc5c4)c3)CC2)=C(c2ccc(Cl)cc2)C1 [Venetoclax]
overall response (CLL patients): 80%

Nc1nc(F)nc2c1ncn2[C@@H]1O[C@H](COP(=O)(O)O)[C@@H](O)[C@@H]1O [fludarabine phosphate]
increase in apoptosis [15]: 24.6%
